Data published in paper PMC12646544, “Bioremediation of acetamiprid and sulfoxaflor co-contamination by Ensifer sp. DA6 and characterization of a novel nitrile hydratase involved” (Frontiers in Microbiology, 2025).

System: T1, Ensifer sp. DA6 NHase
T1 construct: gene nthA; NHase gene cluster (alpha, beta, accessory) in pET28a, E. coli Rosetta (DE3), N-terminal 6xHis-tag, Ni-NTA purified; cobalt type; accessory protein not detected on SDS-PAGE; forward primer encodes MSEHHHG; alpha motif VCTLCSC; with Nitrile hydratase accessory protein
Assay: HPLC, Michaelis-Menten non-linear regression
Type: biochemical
Conditions: 50 mmol/L PBS pH 7.0, 45 °C, cobalt enzyme, 25-1,000 mg/L substrate
Source text: HPLC, Michaelis-Menten non-linear regression on Ensifer sp.

SMILES	Km (60 min)	Km (30 min, stereoisomer mixture)
C/C(=N\C#N)N(C)Cc1ccc(Cl)nc1 [ACE, N-[(6-chloro-3-pyridyl)methyl]-N′-cyano-N-methylacetamidine]	8.16 mM	–
CC(c1ccc(C(F)(F)F)nc1)S(C)(=O)=NC#N (centres unmarked) [SUL, [N-(methyloxido{1-[6-(trifluoromethyl)-3-pyridinyl]ethyl}-λ^4-sulfanylidene)cyanamide]]	–	7.93 mM
